# Experimental data from PubChem BioAssay AID220 (DTP/NCI, 2004).
# Several values for one entry are separate records, joined by “and”; a condition that tells them apart may be missing. Equal values may be shown once. Records with an inconclusive call do not appear.
# Test system: CD8F1 mice, subcutaneous mammary adenocarcinoma, T/C%
# Experiment: NCI In Vivo Anticancer Drug Screen. Data for tumor model Mammary Adenocarcinoma CD8F1 (subcutaneous) in CD8F1
# Conditions: higher = larger tumour
# Outline: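 Transplantable tumors were established in mice, animals were dosed with compound or vehicle, and survival or tumor size was then measured in both groups. The treated result was divided by the control result.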
# [1] = endpoint: median tumor weight change, dose: 62.5 mg/kg/injection, schedule: Q01DX001 (ip), vehicle: saline with Tween-80
# [2] = endpoint: median tumor weight change, dose: 250.0 mg/kg/injection, schedule: Q01DX001 (ip), vehicle: saline with Tween-80
# [3] = endpoint: median tumor weight change, dose: 500.0 mg/kg/injection, schedule: Q01DX001 (ip), vehicle: saline with Tween-80
# [4] = endpoint: median tumor weight change, dose: 1000.0 mg/kg/injection, schedule: Q01DX001 (ip), vehicle: saline with Tween-80
# [5] = endpoint: median tumor weight (est.), dose: 25.0 mg/kg/injection, schedule: Q07DX005 (ip), vehicle: Klucel (hydroxypropylcellulose) (HPC)
# [6] = endpoint: median tumor weight (est.), dose: 200.0 mg/kg/injection, schedule: Q07DX005 (ip), vehicle: Klucel (hydroxypropylcellulose) (HPC)
compound,measurement,setting,value
CCN(CC)c1ccc2[nH]c3c(C(N)=O)cc(=O)c(=O)c=3oc2c1,T/C,[1],92 % of control
same,T/C,[2],121 % of control
same,T/C,[3],28 % of control
O=C1CC2(C(=O)N1CN1CCOCC1)c1ccccc1-c1ccccc12,T/C,"endpoint: median tumor weight change, dose: 250.0 mg/kg/injection, schedule: Q01DX001 (ip), vehicle: Klucel (hydroxypropylcellulose) (HPC)",167 % of control
same,T/C,"endpoint: median tumor weight change, dose: 500.0 mg/kg/injection, schedule: Q01DX001 (ip), vehicle: Klucel (hydroxypropylcellulose) (HPC)",102 % of control
same,T/C,"endpoint: median tumor weight change, dose: 1000.0 mg/kg/injection, schedule: Q01DX001 (ip), vehicle: Klucel (hydroxypropylcellulose) (HPC)",40 % of control
O=c1cc(-c2ccccc2)[nH]c2c1CCCC2,T/C,[4],78 % of control
CNC(=O)/C=C/C1=CN2C(=O)c3ccc(C)c(O)c3NC(OC)C2C1 (stereo unspecified),T/C,"endpoint: median tumor weight change, dose: 0.03 mg/kg/injection, schedule: Q01DX001 (ip), vehicle: suspension in saline",70 % of control
same,T/C,"endpoint: median tumor weight change, dose: 0.07 mg/kg/injection, schedule: Q01DX001 (ip), vehicle: suspension in saline",51 % of control
same,T/C,"endpoint: median tumor weight change, dose: 0.31 mg/kg/injection, schedule: Q01DX001 (ip), vehicle: saline",150 % of control
same,T/C,"endpoint: median tumor weight change, dose: 0.62 mg/kg/injection, schedule: Q01DX001 (ip), vehicle: saline",83 % of control
Nc1ccc(C(OC(=O)c2cc3ccccc3c(Cc3c(O)c(C(=O)OC(c4ccc(N)cc4)(c4ccc(N)cc4)c4ccc(N)cc4)cc4ccccc34)c2O)(c2ccc(N)cc2)c2ccc(N)cc2)cc1,T/C,"endpoint: median tumor weight change, dose: 6.25 mg/kg/injection, schedule: Q01DX001 (ip), vehicle: saline with Tween-80",73 % of control
same,T/C,"endpoint: median tumor weight change, dose: 50.0 mg/kg/injection, schedule: Q01DX001 (ip), vehicle: saline with Tween-80",97 % of control
same,T/C,[1],61 % of control
O=C(Nc1ccccc1C(=O)O)c1cc([N+](=O)[O-])cc([N+](=O)[O-])c1,T/C,"endpoint: median tumor weight change, dose: 125.0 mg/kg/injection, schedule: Q01DX001 (ip), vehicle: saline with Tween-80",192 % of control
same,T/C,[2],117 % of control
CC[C@]1(O)C[C@H]2CN(CCc3c([nH]c4ccccc34)[C@@](C(=O)OC)(c3cc4c(cc3OC)N(C=O)[C@H]3[C@@](O)(C(=O)OC)[C@H](OC(C)=O)[C@]5(CC)C=CCN6CC[C@]43[C@@H]65)C2)C1,T/C,"endpoint: mean tumor weight, dose: 0.07 mg/kg/injection, schedule: Q01DX009 (ip), vehicle: saline",180 % of control
same,T/C,"endpoint: mean tumor weight, dose: 0.15 mg/kg/injection, schedule: Q01DX009 (ip), vehicle: saline",123 % of control
same,T/C,"endpoint: mean tumor weight, dose: 0.3 mg/kg/injection, schedule: Q01DX009 (ip), vehicle: saline",54 % of control
same,T/C,"endpoint: mean tumor weight, dose: 0.5 mg/kg/injection, schedule: Q07DX006 (ip), vehicle: saline",49 % of control
same,T/C,"endpoint: mean tumor weight, dose: 1.0 mg/kg/injection, schedule: Q07DX006 (ip), vehicle: saline",71 % of control
same,T/C,"endpoint: mean tumor weight, dose: 2.0 mg/kg/injection, schedule: Q07DX006 (ip), vehicle: saline",12 % of control
same,T/C,"endpoint: median tumor weight (est.), dose: 0.13 mg/kg/injection, schedule: Q01DX005 (ip), vehicle: saline",56 % of control
same,T/C,"endpoint: median tumor weight (est.), dose: 0.19 mg/kg/injection, schedule: Q01DX005 (ip), vehicle: saline",73 % of control
same,T/C,"endpoint: median tumor weight (est.), dose: 0.25 mg/kg/injection, schedule: Q07DX005 (ip), vehicle: saline",64 % of control and 73 % of control and 84 % of control
same,T/C,"endpoint: median tumor weight (est.), dose: 0.28 mg/kg/injection, schedule: Q01DX005 (ip), vehicle: saline",105 % of control
same,T/C,"endpoint: median tumor weight (est.), dose: 0.5 mg/kg/injection, schedule: Q07DX005 (ip), vehicle: saline",39 % of control and 43 % of control and 45 % of control
same,T/C,"endpoint: median tumor weight (est.), dose: 0.95 mg/kg/injection, schedule: Q07DX005 (ip), vehicle: saline",29 % of control
same,T/C,"endpoint: median tumor weight (est.), dose: 1.0 mg/kg/injection, schedule: Q07DX005 (ip), vehicle: saline",6 % of control
same,T/C,"endpoint: median tumor weight (est.), dose: 1.4 mg/kg/injection, schedule: Q04DX005 (ip), vehicle: saline",6 % of control
same,T/C,"endpoint: median tumor weight (est.), dose: 1.4 mg/kg/injection, schedule: Q07DX005 (ip), vehicle: saline",8 % of control
same,T/C,"endpoint: median tumor weight (est.), dose: 2.0 mg/kg/injection, schedule: Q07DX005 (ip), vehicle: saline",1 % of control
CNC(=O)c1cccc2c(Nc3ccc(NS(C)(=O)=O)cc3OC)c3cccc(C)c3nc12,T/C,"endpoint: median tumor weight change, dose: 60.0 mg/kg/injection, schedule: Q01DX001 (ip), vehicle: water",6 % of control
same,T/C,"endpoint: median tumor weight change, dose: 62.5 mg/kg/injection, schedule: Q01DX001 (ip), vehicle: water",-63 % of control
same,T/C,"endpoint: median tumor weight change, dose: 120.0 mg/kg/injection, schedule: Q01DX001 (ip), vehicle: other",-68 % of control
O=CC(=O)c1ccc(O)cc1,T/C,"endpoint: median tumor weight (est.), dose: 12.5 mg/kg/injection, schedule: Q07DX005 (ip), vehicle: suspension in saline",102 % of control
same,T/C,"endpoint: median tumor weight (est.), dose: 25.0 mg/kg/injection, schedule: Q07DX005 (ip), vehicle: suspension in saline",111 % of control
same,T/C,"endpoint: median tumor weight (est.), dose: 50.0 mg/kg/injection, schedule: Q07DX005 (ip), vehicle: suspension in saline",123 % of control
same,T/C,"endpoint: median tumor weight (est.), dose: 100.0 mg/kg/injection, schedule: Q07DX005 (ip), vehicle: suspension in saline",114 % of control
C(C#CCN1CCOCC1)#CCN1CCOCC1,T/C,[5],181 % of control
same,T/C,"endpoint: median tumor weight (est.), dose: 50.0 mg/kg/injection, schedule: Q07DX005 (ip), vehicle: Klucel (hydroxypropylcellulose) (HPC)",43 % of control
same,T/C,"endpoint: median tumor weight (est.), dose: 100.0 mg/kg/injection, schedule: Q07DX005 (ip), vehicle: Klucel (hydroxypropylcellulose) (HPC)",48 % of control
same,T/C,[6],41 % of control
same,T/C,"endpoint: median tumor weight (est.), dose: 400.0 mg/kg/injection, schedule: Q07DX005 (ip), vehicle: Klucel (hydroxypropylcellulose) (HPC)",68 % of control
same,T/C,"endpoint: median tumor weight (est.), dose: 800.0 mg/kg/injection, schedule: Q07DX005 (ip), vehicle: Klucel (hydroxypropylcellulose) (HPC)",62 % of control
[N-]=[N+]=C1N=CN=C1c1ncn[nH]1,T/C,"endpoint: median tumor weight (est.), dose: 3.12 mg/kg/injection, schedule: Q07DX005 (ip), vehicle: carboxymethylcellulose (CMC)",91 % of control
same,T/C,"endpoint: median tumor weight (est.), dose: 6.25 mg/kg/injection, schedule: Q07DX005 (ip), vehicle: carboxymethylcellulose (CMC)",95 % of control
COC1=NCN=C2SC=C(N)N=C12,T/C,"endpoint: median tumor weight (est.), dose: 6.25 mg/kg/injection, schedule: Q07DX005 (ip), vehicle: saline",208 % of control
same,T/C,"endpoint: median tumor weight (est.), dose: 12.5 mg/kg/injection, schedule: Q07DX005 (ip), vehicle: saline",76 % of control
same,T/C,"endpoint: median tumor weight (est.), dose: 25.0 mg/kg/injection, schedule: Q07DX005 (ip), vehicle: saline",107 % of control
same,T/C,"endpoint: median tumor weight (est.), dose: 50.0 mg/kg/injection, schedule: Q07DX005 (ip), vehicle: saline",156 % of control
CS(=O)(=O)OCCCCOS(C)(=O)=O,T/C,"endpoint: median tumor weight (est.), dose: 12.5 mg/kg/injection, schedule: Q07DX005 (ip), vehicle: Klucel (hydroxypropylcellulose) (HPC)",91 % of control and 95 % of control
same,T/C,[5],59 % of control and 70 % of control
same,T/C,[6],8 % of control
CO[C@H]1C[C@@H]2CC[C@@H](C)[C@@](O)(O2)C(=O)C(=O)N2CCCC[C@H]2C(=O)O[C@H]([C@H](C)C[C@@H]2CC[C@@H](O)[C@H](OC)C2)CC(=O)[C@H](C)C=C(C)[C@@H](O)[C@@H](OC)C(=O)[C@H](C)C[C@H](C)/C=C/C=C/C=C1C,T/C,"endpoint: median tumor weight (est.), dose: 3.12 mg/kg/injection, schedule: Q07DX005 (ip), vehicle: clinical formulation",48 % of control
same,T/C,"endpoint: median tumor weight (est.), dose: 3.12 mg/kg/injection, schedule: Q07DX005 (ip), vehicle: saline with Tween-80",54 % of control
same,T/C,"endpoint: median tumor weight (est.), dose: 6.25 mg/kg/injection, schedule: Q07DX005 (ip), vehicle: clinical formulation",58 % of control
same,T/C,"endpoint: median tumor weight (est.), dose: 6.25 mg/kg/injection, schedule: Q07DX005 (ip), vehicle: saline with Tween-80",49 % of control
same,T/C,"endpoint: median tumor weight (est.), dose: 12.5 mg/kg/injection, schedule: Q07DX005 (ip), vehicle: clinical formulation",77 % of control
same,T/C,"endpoint: median tumor weight (est.), dose: 12.5 mg/kg/injection, schedule: Q07DX005 (ip), vehicle: saline with Tween-80",29 % of control and 40 % of control
same,T/C,"endpoint: median tumor weight (est.), dose: 25.0 mg/kg/injection, schedule: Q07DX005 (ip), vehicle: clinical formulation",60 % of control
same,T/C,"endpoint: median tumor weight (est.), dose: 25.0 mg/kg/injection, schedule: Q07DX005 (ip), vehicle: saline with Tween-80",25 % of control and 31 % of control
same,T/C,"endpoint: median tumor weight (est.), dose: 50.0 mg/kg/injection, schedule: Q07DX005 (ip), vehicle: clinical formulation",50 % of control
same,T/C,"endpoint: median tumor weight (est.), dose: 50.0 mg/kg/injection, schedule: Q07DX005 (ip), vehicle: saline with Tween-80",22 % of control and 23 % of control
same,T/C,"endpoint: median tumor weight (est.), dose: 100.0 mg/kg/injection, schedule: Q07DX005 (ip), vehicle: clinical formulation",63 % of control
same,T/C,"endpoint: median tumor weight (est.), dose: 100.0 mg/kg/injection, schedule: Q07DX005 (ip), vehicle: saline with Tween-80",14 % of control and 20 % of control
same,T/C,"endpoint: median tumor weight (est.), dose: 200.0 mg/kg/injection, schedule: Q07DX005 (ip), vehicle: clinical formulation",22 % of control
same,T/C,"endpoint: median tumor weight (est.), dose: 200.0 mg/kg/injection, schedule: Q07DX005 (ip), vehicle: saline with Tween-80",10 % of control and 23 % of control
CC(=O)Nc1cscc1NC(C)=O,T/C,[2],73 % of control and 85 % of control
same,T/C,[3],71 % of control and 73 % of control
same,T/C,[4],74 % of control and 91 % of control
